Values quoted from earlier work in patent publication US20060034774A1, “Galactopyrannosyltriaminetetracarboxylate as ligands for bioactivated paramagnetic metal complexes” (Kaohsiung Medical University, priority 2004, published 2006).
Where two headings read alike, the source gives them in different places.

Target: β-galactosidase (β-gal) (Escherichia coli, UniProt P00722)
Sequence (P00722 2-1024): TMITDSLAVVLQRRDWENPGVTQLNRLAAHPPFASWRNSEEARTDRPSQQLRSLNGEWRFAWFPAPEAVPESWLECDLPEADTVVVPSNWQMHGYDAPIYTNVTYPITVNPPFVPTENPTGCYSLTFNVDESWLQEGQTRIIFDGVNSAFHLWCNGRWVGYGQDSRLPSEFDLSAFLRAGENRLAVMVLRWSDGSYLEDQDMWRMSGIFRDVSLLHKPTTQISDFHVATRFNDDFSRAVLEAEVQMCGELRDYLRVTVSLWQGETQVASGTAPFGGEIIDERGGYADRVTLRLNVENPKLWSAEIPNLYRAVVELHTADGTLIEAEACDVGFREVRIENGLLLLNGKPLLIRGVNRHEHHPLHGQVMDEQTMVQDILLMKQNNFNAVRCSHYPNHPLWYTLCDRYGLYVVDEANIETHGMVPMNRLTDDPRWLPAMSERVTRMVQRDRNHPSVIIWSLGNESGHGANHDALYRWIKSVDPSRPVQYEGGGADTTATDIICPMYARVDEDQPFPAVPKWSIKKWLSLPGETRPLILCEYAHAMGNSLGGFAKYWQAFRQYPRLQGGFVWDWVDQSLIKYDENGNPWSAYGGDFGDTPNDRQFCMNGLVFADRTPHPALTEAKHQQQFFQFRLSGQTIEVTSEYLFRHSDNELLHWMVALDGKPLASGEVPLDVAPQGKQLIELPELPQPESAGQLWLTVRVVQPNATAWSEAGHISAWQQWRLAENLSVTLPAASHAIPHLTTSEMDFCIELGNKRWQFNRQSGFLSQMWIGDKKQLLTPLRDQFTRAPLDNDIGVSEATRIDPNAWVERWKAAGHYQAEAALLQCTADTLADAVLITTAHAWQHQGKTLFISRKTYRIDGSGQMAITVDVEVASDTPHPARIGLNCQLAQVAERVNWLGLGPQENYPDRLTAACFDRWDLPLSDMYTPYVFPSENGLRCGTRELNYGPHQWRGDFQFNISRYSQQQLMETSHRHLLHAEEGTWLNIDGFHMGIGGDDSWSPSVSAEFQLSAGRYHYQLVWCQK

## O=C(O)CN1CCN(CCO[C@@H]2O[C@H](CO)[C@H](O)[C@H](O)[C@H]2O)CCN(CC(=O)O)CCN(CC(=O)O)CC1 [Egad, 4,7,10-tri(aceticacid)-1-(2-β-galactopyranosylethoxy)-1,4,7,10-tetraagacyclo dodecane]
After hydrolysis by β-galactosidase (β-gal)
  number of inner space water molecules: 1.2
Before β-galactosidase
  number of inner space water molecules: 0.7
